For experiment [1], the target named is T1, GIRK1/4 channels (Homo sapiens, UniProt P48544+P48549).
T1 sequence (P48549 1-501): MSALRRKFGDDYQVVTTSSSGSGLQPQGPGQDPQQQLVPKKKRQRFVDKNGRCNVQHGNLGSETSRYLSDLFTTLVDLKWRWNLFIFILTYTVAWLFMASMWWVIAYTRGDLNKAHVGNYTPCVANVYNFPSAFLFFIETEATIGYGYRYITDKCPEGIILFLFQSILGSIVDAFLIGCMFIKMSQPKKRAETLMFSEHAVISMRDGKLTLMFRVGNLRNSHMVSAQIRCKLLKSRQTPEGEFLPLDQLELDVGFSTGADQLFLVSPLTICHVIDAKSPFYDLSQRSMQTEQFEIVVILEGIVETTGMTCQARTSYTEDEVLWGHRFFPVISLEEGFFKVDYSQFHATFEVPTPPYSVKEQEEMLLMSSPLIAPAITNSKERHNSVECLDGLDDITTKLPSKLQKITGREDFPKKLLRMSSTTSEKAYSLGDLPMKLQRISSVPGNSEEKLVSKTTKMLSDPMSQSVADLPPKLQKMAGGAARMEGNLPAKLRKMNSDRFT
T1 sequence (P48544 1-419): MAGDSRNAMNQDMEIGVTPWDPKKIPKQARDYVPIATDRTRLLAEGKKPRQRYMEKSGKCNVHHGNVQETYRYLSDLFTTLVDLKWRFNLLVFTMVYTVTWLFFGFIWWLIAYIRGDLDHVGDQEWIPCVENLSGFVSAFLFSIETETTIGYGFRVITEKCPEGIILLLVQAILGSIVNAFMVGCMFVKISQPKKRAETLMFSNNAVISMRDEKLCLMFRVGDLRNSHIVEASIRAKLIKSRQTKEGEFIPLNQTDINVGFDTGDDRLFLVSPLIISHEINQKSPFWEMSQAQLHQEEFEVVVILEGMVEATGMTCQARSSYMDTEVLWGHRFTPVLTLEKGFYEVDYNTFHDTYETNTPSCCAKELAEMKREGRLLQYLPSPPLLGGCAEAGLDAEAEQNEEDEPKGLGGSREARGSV
Nature of the experiment: Ligand-induced GIRK channel block in oocytes expressing GIRK channels in the absence of D2R. The experiment is classed as cell-based. Particulars: for Ligand-induced GIRK channel block: 30 μM ligand, oocytes without D2R; for Current amplitude following application of ligand in the absence of D2R expression: oocytes injected with GIRK1 and GIRK4. The text has this: Figure S1. Effect of competing ligands on GIRK currents in the absence of D2R expression. Current
Figure S2. Intrinsic activities of aripiprazole analogues at WT D2R. Agonist responses of SWR-1-8, SV-III- […]

For experiment [2], the target named is T2, D2R (Homo sapiens, UniProt P14416).
T2 construct: expressed in transfected cells
T2 sequence (P14416 whole entry): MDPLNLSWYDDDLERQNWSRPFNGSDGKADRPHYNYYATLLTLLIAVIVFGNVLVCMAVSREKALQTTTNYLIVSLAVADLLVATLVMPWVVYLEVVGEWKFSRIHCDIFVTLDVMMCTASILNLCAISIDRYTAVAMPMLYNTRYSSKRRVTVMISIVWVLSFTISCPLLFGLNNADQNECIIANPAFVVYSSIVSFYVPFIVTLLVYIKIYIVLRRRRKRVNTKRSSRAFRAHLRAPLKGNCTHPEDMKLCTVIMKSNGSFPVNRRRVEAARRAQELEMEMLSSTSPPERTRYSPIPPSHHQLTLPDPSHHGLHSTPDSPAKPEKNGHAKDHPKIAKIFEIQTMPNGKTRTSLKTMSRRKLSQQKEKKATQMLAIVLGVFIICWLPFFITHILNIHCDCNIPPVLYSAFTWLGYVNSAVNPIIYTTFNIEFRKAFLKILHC
Nature of the experiment: BRET beta-arrestin2 recruitment curve-shift assay in transfected HEK293 cells. The format is cell-based. Particulars: 5 min preincubation with antagonist before dopamine.

The target in experiment [3] is T3, D2R WT (Homo sapiens, UniProt P14416). Nature of the experiment: cell-based.
T3 sequence (P14416 whole entry): as above
Experiment [4] addresses T3, D2R WT. Nature of the experiment: G protein-coupled inward rectifier potassium (GIRK) channel activation assay in Xenopus oocytes coexpressing D2R, RGS4 and GIRK1/4.

This is an account of results in paper PMC7553383 (ACS Chemical Neuroscience, 2020).

Consider `COc1ccccc1N1CCN(CCCCCOc2ccc3c(c2)NC(=O)CC3)CC1` [SWR-1-14], for which the “Ligand-induced GIRK channel block” value in experiment [1] is listed as less than 10%. Also, the “Current amplitude following application of ligand in the absence of D2R expression” value (“Current amplitude following application” below) in experiment [1] (30 µM ligand) worked out at 0.90 ± 0.01.
Take `COc1ccccc1N1CCN(CCCCOc2ccc3c(c2)NC(=O)CC3)CC1` [SV-III-130]: the “Current amplitude following application” value in experiment [1] (1 µM ligand) came to 1.00 ± 0.02. Moreover, the “Ligand-induced GIRK channel block” value in experiment [1] is less than 10%.
Regarding `COc1ccccc1N1CCN(CCCOc2ccc3c(c2)NC(=O)CC3)CC1` [SWR-1-8], the “Ligand-induced GIRK channel block” value in experiment [1] was less than 10%. In addition, the “Current amplitude following application” value in experiment [1] (30 µM ligand) was found to be 0.99 ± 0.06. Moreover, the “mode of antagonism of DA-induced beta-arrestin2 recruitment” value in experiment [2] was “competitive antagonism”. In experiment [3], this compound had a Ki of 9.77 nM. Moreover, in experiment [4], the Kd was 50.1 nM and the koff was found to be 0.017 ± 0.002 s⁻¹. In experiment [4] (WT D2R, normalized to 1 μM DA), the “intrinsic activity in the GIRK activation assay (in words)” value is listed as “antagonists/inverse agonists”.
